Columns and labels:
[1] = test system: KURAMOCHI cells; experiment: Inhibition of proliferation of KURAMOCHI cells (CellTiter-Glo, intracellular ATP); format: cell-based; settings: 168 h, incubated for 7 days, read-out: IC50 against KURAMOCHI cells
Method in brief: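 KURAMOCHI cells seeded at 4000/well, incubated overnight, then treated with 9-point 1:4 compound series from 10 µM (0.5% DMSO) for 7 days at 37°C, 5% CO2. Viability read by CellTiter-Glo luminescence; inhibition normalised to medium-only (100%) and DMSO (0%) controls, IC50 from variable-slope four-parameter fit.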

[2] = Pharmacokinetic evaluation in CD-1 mice (IV and PO); format: in vivo; settings: male, mouse, plasma; for Vd: read-out: Vss
Description: (§1) Using mice as test animals, the compounds of the present disclosure were administered via intravenous bolus and oral injection. Plasma samples were collected at specific time points. Compound concentrations in plasma were determined by LC-MS/MS, and PK parameters were calculated to characterize the pharmacokinetic behavior of the compounds of the present disclosure in plasma.
CD-1 mice, male, supplied by Zhejiang Vital River Laboratory Animal Technology Co., Ltd.
Dosing regimen for CD-1 mice: Both the IV (intravenous) and PO (oral) experimental groups consisted of 3 mice. The IV group was administered at a dose of 1 mg/kg and a volume of 5 mL/kg. The PO group was administered at a dose of 30 mg/kg and a volume of 10 mL/kg. The dosing vehicle was 5% (v/v) DMSO/10% (v/v) Solutol/85% (v/v) saline.
(§2) Following administration, 0.025 mL of blood was collected via venipuncture at the following time points: 0.0833 (IV), 0.25, 0.5, 1, 2, 4, 8, and 24 hours. Blood samples were collected into EDTA-K2 tubes and centrifuged at 4°C and 2000 g for 10 minutes to separate plasma, which was stored at -80°C.
(§3) Mouse plasma processing: • 1) 15 µL of plasma was mixed with 200 µL of acetonitrile for protein precipitation. The mixture was vortexed and centrifuged for 15 minutes. • 2) The supernatant after processing was diluted with water and analyzed by LC/MS/MS to determine the concentration of the test compound.
(§4) Pharmacokinetic parameters were calculated using WinNonlin 6.1. Specifically, Cmax represents maximum plasma concentration, CL represents clearance, Vss represents volume of distribution at steady state, T1/2 represents terminal elimination half-life, MRTInf represents mean residence time, AUC represents area under the plasma concentration-time curve, and F represents bioavailability. Table 18: Pharmacokinetic parameters of the compounds of the present disclosure in CD-1 mice

[3] = Pharmacokinetic evaluation in BALB/c nude mice (PO); format: in vivo; settings: female, mouse, plasma, 30 mg/kg
Description: as §1
BALB/c nude mice, female, supplied by Jiangsu GemPharmatech Co., Ltd.
Dosing regimen for BALB/c nude mice: The PO (oral) experimental group consisted of 3 mice, which were administered at a dose of 30 mg/kg and a volume of 10 mL/kg. The dosing vehicle was 5% (v/v) DMSO/10% (v/v) Solutol/85% (v/v) saline.
as §2, §3, §4

SMILES | IC50 [1] | AUC ([2]; IV, 1 mg/kg) | MRT inf ([2]; IV, 1 mg/kg) | clearance ([2]; IV, 1 mg/kg) | half-life ([2]; IV, 1 mg/kg) | Vd ([2]; IV, 1 mg/kg) | AUC ([2]; PO, 30 mg/kg) | Cmax ([2]; PO, 30 mg/kg) | MRT inf ([2]; PO, 30 mg/kg) | half-life ([2]; PO, 30 mg/kg) | AUC [3] | Cmax [3] | MRT inf [3] | half-life [3]
CCc1nc2n(-c3nnc(C(F)F)s3)c3cc(S(=O)(=O)NC4(C)CC4)cc(N4C[C@H](C)N[C@@H](C)C4)c3n2n1 [Compound 065R] | 2 nM | 0.555 µM·h | 2.3 h | 50 mL/min/kg | 132 min | 6.8 L/kg | 11.2 µM·h | 1610 nM | 4.6 h | 144 min | 9.52 µM·h | 1620 nM | 4.39 h | 157 min
C[C@H]1CN(c2cc(S(=O)(=O)NC3(C)CC3)cc3c2n2nc(C(F)F)nc2n3-c2nnc(C(F)F)s2)C[C@H](C)N1 [Compound 065S] | 2 nM |  |  |  |  |  |  |  |  |  | 9.21 µM·h | 1340 nM | 4.8 h | 161 min
C[C@H]1CN(c2cc(S(=O)(=O)NC3(C)CC3)cc3c2n2nc(C(F)(F)F)nc2n3-c2nnc(C(F)F)s2)C[C@H](C)N1 [Compound 065W] | 4 nM | 1.26 µM·h | 5.6 h | 22 mL/min/kg | 312 min | 7.2 L/kg | 18.3 µM·h | 1980 nM | 5.7 h | 198 min | 16.4 µM·h | 1340 nM | 7.74 h | 317 min
